Reference: patent publication US9040080B2, “Processing of heat-sensitive active agents” (SOUTHWEST RESEARCH INSTITUTE, priority 2008, dated 2015)

Legend:
[1] = HPLC analysis of thermal degradation of brinzolamide in extruded fibers; assay type: physicochemical; settings: PLGA microspheres (40%) extruded with poly(caprolactone) (60%)
Text: The active ingredient brinzolamide was microencapsulated in two poly(lactic acid-co-glycolic acid) (PLGA) copolymers, one having a molar ratio of 75/25 (PLGA7525) and one having a molar ratio of 85/15 (PLGA 8515) as discussed further below. The theoretical amount of active agent was 40% by weight in each microencapsulation formulation. The two microsphere formulations were extruded with a lower melting point polymer, poly(caprolactone) (CAPA686), wherein the microspheres were present at 40% by weight and the poly(caprolactone) was present at 60% by weight, forming fibers incorporating the microcapsules therein.

[2] = Drug degradation on direct melt processing (extrusion) with PLGA; assay type: physicochemical; settings: directly melt processed by extrusion with poly(lactic acid-co glycolic acid) at 75:25 and 85:15 molar ratios, 140° C.-160° C.
Experimental: For example, about 5% drug degradation was found when brinzolamide, having a melting point in the range of 130-131° C. was directly melt processed by extrusion with poly(lactic acid-co glycolic acid) at 75:25 and 85:15 molar ratios. Melt processing temperatures of the poly(lactic-co glycolic acid) were in the range of 140° C.-160° C.

thermal degradation of brinzolamide in the fibers [1]: absence of thermal degradation
drug degradation [2]: about 5%
SMILES: CCN[C@H]1CN(CCCOC)S(=O)(=O)c2sc(S(N)(=O)=O)cc21 [brinzolamide, (R)-(+)-4-Ethylamino-2-(3-methoxypropyl)-3,4-dihydro-2H-thieno[3,2-e]-1,2-thiazine-6-sulfonamide-1,1-dioxide]
